Like-named read-outs stand apart in the source and are kept apart here.
What was measured:
[1] = tested on: M. tuberculosis H37Rv; test: microbe, parasite or virus in culture; assay type: cell-based; conditions: for MIC: Mycobacterium tuberculosis, H37RV
[2] = tested on: M. tuberculosis H37Rv ΔblaC; test: microbe, parasite or virus in culture; assay type: cell-based; conditions: for MIC: Mycobacterium tuberculosis, H37RV
[3] = tested on: M. abscessus CIP104536; test: MIC of amoxicillin in presence or absence of DBOs, microdilution; assay type: cell-based; conditions: for Fold reduction in the MIC of amoxicillin: M. abscessus, DBO 15 μM; for MIC of amoxicillin / MIC: M. abscessus CIP104536, DBO at 15 μM, listed as None = amoxicillin alone; for MIC: Mycobacteroides abscessus
[4] = tested on: M. abscessus CIP104536 ΔblaMab; test: microbe, parasite or virus in culture; assay type: cell-based; conditions: for MIC: Mycobacteroides abscessus
[5] = tested on: BlaMab; test: Carbamoylation of β-lactamase by DBOs, nitrocefin spectrophotometry; assay type: biochemical, Mycobacterium abscessus; conditions: for Carbamoylation efficacy of β-lactamase BlaMab: 20° C., nitrocefin 100 μM, MES pH 6.4
[6] = target: BlaC (Mycobacterium tuberculosis, UniProt P9WKD3); test: as above; assay type: biochemical; conditions: for Carbamoylation efficacy of β-lactamase BlaC: 20° C., nitrocefin 100 μM, MES pH 6.4, highest DBO concentration 100 μM
[7] = tested on: Ldtfm; test: Inhibition of L,D-transpeptidase by DBOs, residual nitrocefin hydrolysis; assay type: biochemical, E. faecium; conditions: 260 min at 37° C.
[8] = target: LdtMt2 (Mycobacterium tuberculosis, UniProt I6Y9J2); test: as above; assay type: biochemical, M. tuberculosis; conditions: 260 min, Inhibitor/LdtMt2 molar ratio 20 (DBO 200 μM, enzyme 10 μM); 260 min at 37° C.; read-out: Residual activity of LdtMt2 following pre-incubation
[9] = Inhibitor/Ldtfm molar ratio 1, enzyme 10 μM
[10] = Inhibitor/Ldtfm molar ratio 2.5, enzyme 10 μM
[11] = Inhibitor/Ldtfm molar ratio 5, enzyme 10 μM
[12] = Inhibitor/Ldtfm molar ratio 10, enzyme 10 μM
[13] = Inhibitor/Ldtfm molar ratio 20 (DBO 200 μM, enzyme 10 μM)
[14] = read-out: MIC of amoxicillin against indicated strain

Sequence of LdtMt2 (I6Y9J2 55-408): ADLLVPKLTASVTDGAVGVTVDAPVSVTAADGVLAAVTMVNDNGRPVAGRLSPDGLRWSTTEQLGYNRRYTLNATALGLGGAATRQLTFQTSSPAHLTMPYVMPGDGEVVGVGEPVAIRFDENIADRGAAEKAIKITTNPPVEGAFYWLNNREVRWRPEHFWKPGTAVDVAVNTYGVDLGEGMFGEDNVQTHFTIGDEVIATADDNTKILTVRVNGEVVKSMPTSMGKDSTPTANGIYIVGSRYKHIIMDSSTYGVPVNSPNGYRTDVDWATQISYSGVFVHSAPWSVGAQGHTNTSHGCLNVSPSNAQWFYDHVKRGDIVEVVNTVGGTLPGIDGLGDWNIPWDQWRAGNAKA
Sequence of BlaC (P9WKD3 39-306): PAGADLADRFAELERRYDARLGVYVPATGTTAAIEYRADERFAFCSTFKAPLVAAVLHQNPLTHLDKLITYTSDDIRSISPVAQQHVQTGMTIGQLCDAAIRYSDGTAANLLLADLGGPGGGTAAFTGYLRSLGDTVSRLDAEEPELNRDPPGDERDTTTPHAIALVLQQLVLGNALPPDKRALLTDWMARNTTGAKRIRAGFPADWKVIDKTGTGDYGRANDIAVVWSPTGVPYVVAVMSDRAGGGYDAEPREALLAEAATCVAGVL

SMILES	Fold reduction in the MIC of amoxicillin [1]	Fold reduction in the MIC of amoxicillin [3]	Carbamoylation efficacy of β-lactamase BlaMab [5]	Carbamoylation efficacy of β-lactamase BlaC [6]	Residual activity of Ldtfm following pre-incubation [7, 9]	Residual activity of Ldtfm following pre-incubation [7, 10]	Residual activity of Ldtfm following pre-incubation [7, 11]	Residual activity of Ldtfm following pre-incubation [7, 12]	Residual activity of Ldtfm following pre-incubation [7, 13]	remaining activity at 200 µM [8]	also measured
O=C1N2C[C@@H](CC[C@H]2Cn2cc(-c3cccnc3)nn2)N1OS(=O)(=O)O [Compound 1a.i]	activity similar to that of avibactam	activity similar to that of avibactam	(2.2 ± 0.1) × 10^4 M^−1 s^−1	<5 × 10^0 M^−1 s^−1	88.6%	76.1%	63.6%	34.3%	15.8%	14.5%	MIC of amoxicillin [1]: 16 µg/mL; MIC of amoxicillin [2]: 1 µg/mL; MIC of amoxicillin ([3]; Table 1): 16 µg/mL; MIC of amoxicillin ([4]; Table 1, M. abscessus CIP104536 ΔblaMab, DBO at 15 μM, listed as None = amoxicillin alone): 4 µg/mL
O=C(O)CCc1cn(C[C@@H]2CC[C@@H]3CN2C(=O)N3OS(=O)(=O)O)nn1 [Compound 1a.i.14]	–	–	–	–	–	–	–	–	–	87.1%	–
O=C1N2C[C@@H](CC[C@H]2Cn2cc(-c3ccccc3)nn2)N1OS(=O)(=O)O [Compound 1a.i.16]	–	–	–	–	–	–	–	–	–	8.3%	–
COCc1cn(C[C@@H]2CC[C@@H]3CN2C(=O)N3OS(=O)(=O)O)nn1 [Compound 1a.i.13]	–	–	–	–	–	–	–	–	–	41.7%	–
CC1(C)S[C@@H]2[C@H](NC(=O)[C@H](N)c3ccc(O)cc3)C(=O)N2[C@H]1C(=O)O [amoxicillin, reference compound]	–	–	–	–	–	–	–	–	–	–	MIC ([1]; read-out: MIC of amoxicillin): 128 µg/mL; MIC [1, 14]: 128 µg/mL; MIC ([2]; read-out: MIC of amoxicillin): 1 µg/mL; MIC [2, 14]: 1 µg/mL; MIC ([3]; Table 1, read-out: MIC of amoxicillin): > 256 µg/mL; MIC ([3]; Table 2, read-out: MIC of amoxicillin against indicated strain): > 256 µg/mL; MIC of amoxicillin ([3]; Table 1): >256 µg/mL; MIC ([4]; CIP104536, read-out: MIC of amoxicillin): 4 µg/mL; MIC ([4]; CIP104536, read-out: MIC of amoxicillin against indicated strain): 4 µg/mL
C[Si](C)(C)c1cn(C[C@@H]2CC[C@@H]3CN2C(=O)N3OS(=O)(=O)O)nn1 [Compound 2a.i]	–	–	(6.2 ± 0.2) × 10^4 M^−1 s^−1	<5 × 10^0 M^−1 s^−1	88.8%	82.7%	68.0%	50.7%	27.2%	72.4%	–
NC(=O)[C@@H]1CC[C@@H]2CN1C(=O)N2OS(=O)(=O)O [Avibactam, reference compound]	at least 16 fold	at least 16 fold	(1.7 ± 0.1) × 10^5 M^−1 s^−1	(2.4 ± 0.8) × 10^1 M^−1 s^−1	66.3%	36.4%	15.8%	3.4%	2.4%	–	Inhibition of the β-lactamase activity of BlaMab (in words) ([5]; nitrocefin as the substrate): most efficacious inhibition; Inhibition of the β-lactamase activity of BlaC (in words) ([6]; nitrocefin as the substrate, tested up to 100 μM): poorly inhibited
O=C1N2C[C@@H](CC[C@H]2Cn2cc(CN3CCOCC3)nn2)N1OS(=O)(=O)[O-].[Na+] [Compound 1a.i.11]	less active	less active	(4.4 ± 0.2) × 10^3 M^−1 s^−1	<5 × 10^0 M^−1 s^−1	92.0%	83.9%	68.6%	51.8%	28.1%	73.9%	–
